# Columns and labels:
# [1] = test system: Trypanosoma brucei brucei; experiment: Antitrypanosomal activity against Trypanosoma brucei brucei GUTat 3.1 after 72 hrs by AlamarBlue assay; type: functional, organism-based; details: GUTat 3.1, 72 h
# [2] = Selectivity index, ratio of IC50 for human MRC5 cells to IC50 for Trypanosoma brucei brucei GUTat 3.1; type: toxicity, cell-based; details: read-out: Ratio IC50
# MRC5 = experiment: Cytotoxicity against human MRC5 cells; type: cell-based
IC50 [1] [µg/mL],SMILES,selectivity ratio [2],IC50 (MRC5) [µg/mL]
0.72,CC1=C2C[C@@H](O)C=C3C(=O)OC[C@]32C=CC2=C1[C@H](c1ccoc1)OC2=O,1.17,0.84
> 12.5,CC1=C2CCC=C3C(=O)OC[C@]32CCC2=C1[C@H](c1ccoc1)OC2=O,–,16.2
0.69,CC(=O)O[C@H]1C=C2C(=O)OC[C@]23C=CC2=C(C(C)=C3C1)[C@H](c1ccoc1)OC2=O,1.22,0.84
2.39,CCC(=O)O[C@H]1C=C2C(=O)OC[C@]23C=CC2=C(C(C)=C3C1)[C@H](c1ccoc1)OC2=O,0.59,1.41
1.04,CCCC(=O)O[C@H]1C=C2C(=O)OC[C@]23C=CC2=C(C(C)=C3C1)[C@H](c1ccoc1)OC2=O,1.01,1.05
0.2,CCNC(=O)O[C@H]1C=C2C(=O)OC[C@]23C=CC2=C(C(C)=C3C1)[C@H](c1ccoc1)OC2=O,0.9,0.18
6.08,CCCCNC(=O)O[C@H]1C=C2C(=O)OC[C@]23C=CC2=C(C(C)=C3C1)[C@H](c1ccoc1)OC2=O,7.29,44.3
7.17,CC1=C2C[C@@H](OC(=O)Nc3ccccc3)C=C3C(=O)OC[C@]32C=CC2=C1[C@H](c1ccoc1)OC2=O,2.41,17.3
1.15,COCO[C@H]1C=C2C(=O)OC[C@]23C=CC2=C(C(C)=C3C1)[C@H](c1ccoc1)OC2=O,1.73,2
> 12.5,CC1=C2C[C@@H](O)C[C@H]3C(=O)OC[C@@]23C=CC2=C1[C@H](c1ccoc1)OC2=O,–,–
7.73,CC(=O)O[C@@H]1CC2=C(C)C3=C(C=C[C@]24COC(=O)[C@@H]4C1)C(=O)O[C@H]3c1ccoc1,> 12.9,> 100
5.33,CCC(=O)O[C@@H]1CC2=C(C)C3=C(C=C[C@]24COC(=O)[C@@H]4C1)C(=O)O[C@H]3c1ccoc1,11.9,63.5
0.055,CCCC(=O)O[C@@H]1CC2=C(C)C3=C(C=C[C@]24COC(=O)[C@@H]4C1)C(=O)O[C@H]3c1ccoc1,1240,68
> 12.5,CCNC(=O)O[C@@H]1CC2=C(C)C3=C(C=C[C@]24COC(=O)[C@@H]4C1)C(=O)O[C@H]3c1ccoc1,–,–
7.77,CCCNC(=O)O[C@@H]1CC2=C(C)C3=C(C=C[C@]24COC(=O)[C@@H]4C1)C(=O)O[C@H]3c1ccoc1,8.51,66.2
10.5,CC1=C2C[C@@H](OC(=O)Nc3ccccc3)C[C@H]3C(=O)OC[C@@]23C=CC2=C1[C@H](c1ccoc1)OC2=O,> 9.5,> 100
> 12.5,COCO[C@@H]1CC2=C(C)C3=C(C=C[C@]24COC(=O)[C@@H]4C1)C(=O)O[C@H]3c1ccoc1,–,–
4.29,CC(=O)OC1=CC2=C(C)C3=C(C=C[C@]24COC(=O)[C@@H]4C1)C(=O)O[C@H]3c1ccoc1,4.14,17.8
5.56,CCC(=O)OC1=CC2=C(C)C3=C(C=C[C@]24COC(=O)[C@@H]4C1)C(=O)O[C@H]3c1ccoc1,4.06,22.6
3.89,CCCC(=O)OC1=CC2=C(C)C3=C(C=C[C@]24COC(=O)[C@@H]4C1)C(=O)O[C@H]3c1ccoc1,5.54,21.6
> 12.5,CC1=C2C=CC[C@H]3C(=O)OC[C@@]23C=CC2=C1[C@H](c1ccoc1)OC2=O,–,–
–,NCCCC(N)(C(=O)O)C(F)F (stereo not given) [EFLORNITHINE],> 44,> 100
0.0017,N=C(N)c1ccc(OCCCCCOc2ccc(C(=N)N)cc2)cc1 [PENTAMIDINE],3350,–
–,Cc1ccc(C(=O)Nc2ccc(S(=O)(=O)O)c3cc(S(=O)(=O)O)cc(S(=O)(=O)O)c23)cc1NC(=O)c1cccc(NC(=O)Nc2cccc(C(=O)Nc3cc(C(=O)Nc4ccc(S(=O)(=O)O)c5cc(S(=O)(=O)O)cc(S(=O)(=O)O)c45)ccc3C)c2)c1 [SURAMIN],> 63,> 100

# Reference: ChEMBL document CHEMBL3102774, “Semisynthesis of salviandulin E analogues and their antitrypanosomal activity” (Bioorg Med Chem Lett, 2014)
